Experimental data taken from EPA's ToxValDB 9.5.

Tested on: Rattus norvegicus
Conditions: short-term, duration: 28 days, oral, gavage, Sprague-Dawley

O=C(O)C(F)(F)C(F)(F)C(F)(F)C(F)(F)C(F)(F)C(F)(F)C(F)(F)F [Perfluorooctanoic acid]
LOEL (F, Clinical chemistry_Alanine aminotransferase): 50 mg/kg-day
LOEL (F, Clinical chemistry_Albumin): 25 mg/kg-day
LOEL (F, Clinical chemistry_Albumin/globulin ratio): 12.5 mg/kg-day
LOEL (F, Clinical chemistry_Alkaline phosphatase): 6.25 mg/kg-day
NOEL (F, Clinical chemistry_Aspartate aminotransferase): 100 mg/kg-day
LOEL (F, Clinical chemistry_Cholesterol): 50 mg/kg-day
NOEL (F, Clinical chemistry_Creatinine kinase): 100 mg/kg-day
NOEL (F, Clinical chemistry_Direct bilirubin): 100 mg/kg-day
LOEL (F, Clinical chemistry_Free thyroxine): 100 mg/kg-day
LOEL (F, Clinical chemistry_Globulin): 12.5 mg/kg-day
NOEL (F, Clinical chemistry_Indirect bilirubin): 100 mg/kg-day
NOEL (F, Clinical chemistry_Sorbitol dehydrogenase): 100 mg/kg-day
NOEL (F, Clinical chemistry_Testosterone): 100 mg/kg-day
LOEL (F, Clinical chemistry_Thyroid stimulating hormone): 6.25 mg/kg-day
NOEL (F, Clinical chemistry_Total bile acids): 100 mg/kg-day
NOEL (F, Clinical chemistry_Total bilirubin): 100 mg/kg-day
NOEL (F, Clinical chemistry_Total protein): 100 mg/kg-day
LOEL (F, Clinical chemistry_Total thyroxine): 100 mg/kg-day
NOEL (F, Clinical chemistry_Total triiodothyronine): 100 mg/kg-day
LOEL (F, Clinical chemistry_Triglycerides): 50 mg/kg-day
LOEL (F, Gene expression_Acox1): 12.5 mg/kg-day
LOEL (F, Gene expression_Cyp2b1): 6.25 mg/kg-day
LOEL (F, Gene expression_Cyp2b2): 6.25 mg/kg-day
LOEL (F, Gene expression_Cyp4a1): 25 mg/kg-day
LOEL (F, Hematology_Erythrocytes): 12.5 mg/kg-day
LOEL (F, Hematology_Hematocrit): 12.5 mg/kg-day
LOEL (F, Hematology_Hemoglobin): 12.5 mg/kg-day
NOEL (F, Hematology_Mean corpuscular hemoglobin concentration): 100 mg/kg-day
NOEL (F, Hematology_Mean corpuscular volume): 100 mg/kg-day
NOEL (F, Hematology_Platelets): 100 mg/kg-day
NOEL (F, Hematology_Reticulocytes): 100 mg/kg-day
NOEL (F, Nonneoplastic effects_Bone marrow - Hypocellularity): 100 mg/kg-day
NOEL (F, Nonneoplastic effects_Forestomach - Epithelium, hyperplasia): 100 mg/kg-day
NOEL (F, Nonneoplastic effects_Forestomach - Inflammation, chronic active): 100 mg/kg-day
NOEL (F, Nonneoplastic effects_Kidney - Nephropathy, chronic progressive): 100 mg/kg-day
NOEL (F, Nonneoplastic effects_Liver - Hepatocyte, Necrosis): 100 mg/kg-day
LOEL (F, Nonneoplastic effects_Liver - Hepatocyte, cytoplasmic alteration): 25 mg/kg-day
LOEL (F, Nonneoplastic effects_Liver - Hepatocyte, hypertrophy): 100 mg/kg-day
NOEL (F, Nonneoplastic effects_Liver - Hepatocyte, vacuolization cytoplasmic): 100 mg/kg-day
NOEL (F, Nonneoplastic effects_Lymph nodes - Mandibular, atrophy): 100 mg/kg-day
NOEL (F, Nonneoplastic effects_Lymph nodes - Mesenteric, atrophy): 100 mg/kg-day
LOEL (F, Nonneoplastic effects_Nose - Olfactory epithelium, degeneration): 50 mg/kg-day
LOEL (F, Nonneoplastic effects_Nose - Olfactory epithelium, hyperplasia): 50 mg/kg-day
LOEL (F, Nonneoplastic effects_Nose - Olfactory epithelium, inflammation, suppurative): 100 mg/kg-day
LOEL (F, Nonneoplastic effects_Nose - Respiratory epithelium, hyperplasia): 12.5 mg/kg-day
LOEL (F, Nonneoplastic effects_Nose - Respiratory epithelium, inflammation, chronic active): 12.5 mg/kg-day
NOEL (F, Nonneoplastic effects_Spleen - Atrophy): 100 mg/kg-day
NOEL (F, Nonneoplastic effects_Spleen - Extramedullary hematopoiesis, increased): 100 mg/kg-day
NOEL (F, Nonneoplastic effects_Thymus - Atrophy): 100 mg/kg-day
NOEL (F, Nonneoplastic effects_Thymus - Lymphocyte, apoptosis): 100 mg/kg-day
LOEL (F, Nonneoplastic effects_Thyroid gland - Follicular cell hypertrophy): 100 mg/kg-day
LOEL (F, Organ weights_Liver - Absolute): 25 mg/kg-day
LOEL (F, Organ weights_Liver - Relative): 25 mg/kg-day
NOEL (F, Organ weights_R. adrenal gland - Absolute): 100 mg/kg-day
NOEL (F, Organ weights_R. adrenal gland - Relative): 100 mg/kg-day
LOEL (F, Organ weights_R. kidney - Absolute): 100 mg/kg-day
LOEL (F, Organ weights_R. kidney - Relative): 50 mg/kg-day
NOEL (F, Organ weights_Spleen - Absolute): 100 mg/kg-day
NOEL (F, Organ weights_Spleen - Relative): 100 mg/kg-day
NOEL (F, Organ weights_Thymus - Absolute): 100 mg/kg-day
NOEL (F, Organ weights_Thymus - Relative): 100 mg/kg-day
NOEL (F, Organ weights_Thyroid gland - Absolute): 100 mg/kg-day
NOEL (F, Organ weights_Thyroid gland - Relative): 100 mg/kg-day
LOEL (F, Reproductive toxicity_Altered estrous cyclicity): 100 mg/kg-day
NOEL (F, Survival rates): 100 mg/kg-day
NOEL (F, body weight): 100 mg/kg-day
LOEL (M, Clinical chemistry_Alanine aminotransferase): 0.625 mg/kg-day
NOEL (M, Clinical chemistry_Albumin): 10 mg/kg-day
LOEL (M, Clinical chemistry_Albumin/globulin ratio): 0.625 mg/kg-day
LOEL (M, Clinical chemistry_Alkaline phosphatase): 0.625 mg/kg-day
LOEL (M, Clinical chemistry_Aspartate aminotransferase): 2.5 mg/kg-day
LOEL (M, Clinical chemistry_Cholesterol): 0.625 mg/kg-day
LOEL (M, Clinical chemistry_Creatinine kinase): 2.5 mg/kg-day
